Reference: patent publication US10183952B2, “Thienopyrroles as histone demethylase inhibitors” (ISTITUTO EUROPEO DI ONCOLOGIA S.R.L., priority 2014, dated 2019)
Where a name gives a salt, the structure may show the parent alone.

The compounds below were run against human recombinant KDM1A/CoREST protein (Homo sapiens, UniProt O60341) (assay: Assay of enzyme inhibition of KDM1A (LSD1), TR-FRET).
Procedure: The intensity of the light emission is proportional to the level of biotinylated reaction product. The complex of human recombinant KDM1A/CoREST protein was produced in E. coli as separate proteins and co-purified as previously described.
Demethylase reaction was started by the addition of 50 nM histone H3K4 monomethylated.
The resulting mixture was incubated in the dark for 1 h at RT.
The IC50 was calculated using GraphPad Software.

IC50 [µM] | SMILES
< 10 | Cn1c(C(=O)Nc2cccc(COc3ccncc3)c2)cc2sccc21 [Example 22, 4-methyl-N-[3-(4-pyridyloxymethyl)phenyl]thieno[3,2-b]pyrrole-5-carboxamide]
< 10 | CN1CCC(Oc2ccc(OCc3ccc(NC(=O)c4cc5sccc5n4C)cc3)cc2)CC1 [Example 23, 4-methyl-N-[4-[[4-[(1-methyl-4-piperidyl)oxy]phenoxy]methyl]phenyl]thieno[3,2-b]pyrrole-5-carboxamide]
< 10 | Cn1c(C(=O)Nc2ccccc2COc2ccc(OC3CCCNC3)cc2)cc2sccc21 (centres unmarked) [Example 27, 4-methyl-N-[2-[[4-(3-piperidyloxy)phenoxy]methyl]phenyl]thieno[3,2-b]pyrrole-5-carboxamide]
< 10 | Cn1c(C(=O)Nc2cccc(COc3ccc(OC4CCCNC4)cc3)c2)cc2sccc21 (centres unmarked) [Example 28, 4-methyl-N-[3-[[4-(3-piperidyloxy)phenoxy]methyl]phenyl]thieno[3,2-b]pyrrole-5-carboxamide]
< 10 | Cn1c(C(=O)Nc2ccccc2COc2ccc(NC3CCNCC3)cc2)cc2sccc21 [Example 39, 4-methyl-N-[2-[[4-(4-piperidylamino)phenoxy]methyl]phenyl]thieno[3,2-b]pyrrole-5-carboxamide; 2,2,2-trifluoroacetic acid]
< 10 | Cn1c(C(=O)Nc2ccccc2COc2ccc(OCC3CNC3)cc2)cc2sccc21 [Example 40, N-[2-[[4-(azetidin-3-ylmethoxy)phenoxy]methyl]phenyl]-4-methyl-thieno[3,2-b]pyrrole-5-carboxamide; 2,2,2-trifluoroacetic acid]
< 10 | Cn1c(C(=O)Nc2ccccc2COc2ccc(CN3CCC4(CCNCC4)C3)cc2)cc2sccc21 [Example 41, N-[2-[[4-(2,8-diazaspiro[4.5]decan-2-ylmethyl)phenoxy]methyl]phenyl]-4-methyl-thieno[3,2-b]pyrrole-5-carboxamide]
< 10 | COCc1cccc(NC(=O)c2cc3sccc3n2C)c1COc1ccc(OC2CCCNCC2)cc1 (centres unmarked) [Example 44, N-[2-[[4-(azepan-4-yloxy)phenoxy]methyl]-3-(methoxymethyl)phenyl]-4-methyl-thieno[3,2-b]pyrrole-5-carboxamide hydrochloride]
< 25 | COCc1cccc(NC(=O)c2cc3ccsc3n2C)c1 [Example 48, N-[3-(methoxymethyl)phenyl]-6-methyl-thieno[2,3-b]pyrrole-5-carboxamide]
< 50 | Cn1c(C(=O)Nc2ccccc2OCC2CCNCC2)cc2sccc21 [Example 57, 4-Methyl-N-[2-(4-piperidylmethoxy)phenyl]thieno[3,2-b]pyrrole-5-carboxamide hydrochloride]

Second part, the compound before the results:

SMILES | IC50 [µM]
Cn1c(C(=O)Nc2ccccc2COc2ccc(O[C@@H]3C[C@H]4CC[C@@H](C3)N4)cc2)cc2sccc21 [Example 24, N-[2-[[4-[[(1S,5R)-8-azabicyclo[3.2.1]octan-3-yl]oxy]phenoxy]methyl]phenyl]-4-methyl-thieno[3,2-b]pyrrole-5-carboxamide] | < 10
Cn1c(C(=O)Nc2cccc(COc3ccc(O[C@@H]4C[C@H]5CC[C@@H](C4)N5)cc3)c2)cc2sccc21 [Example 25, N-[3-[[4-[[(1S,5R)-8-azabicyclo[3.2.1]octan-3-yl]oxy]phenoxy]methyl]phenyl]-4-methyl-thieno[3,2-b]pyrrole-5-carboxamide] | < 10
Cn1c(C(=O)Nc2cccc(COc3ccc(OCC4CCNCC4)cc3)c2)cc2sccc21 [Example 26, 4-methyl-N-[3-[[4-(4-piperidylmethoxy)phenoxy]methyl]phenyl]thieno[3,2-b]pyrrole-5-carboxamide] | < 10
Cn1c(C(=O)Nc2cccc(COc3ccc(O[C@H]4CC[C@H](N)CC4)cc3)c2)cc2sccc21 [Example 29, N-[3-[[4-(trans-4-aminocyclohexoxy)phenoxy]methyl]phenyl]-4-methyl-thieno[3,2-b]pyrrole-5-carboxamide] | < 10
Cn1c(C(=O)Nc2cccc(COc3ccc(OCC4CNC4)cc3)c2)cc2sccc21 [Example 30, N-[3-[[4-(azetidin-3-ylmethoxy)phenoxy]methyl]phenyl]-4-methyl-thieno[3,2-b]pyrrole-5-carboxamide] | < 10
CNCCCOc1ccc(OCc2ccccc2NC(=O)c2cc3sccc3n2C)cc1 [Example 31, 4-methyl-N-[2-[[4-(3-methylaminopropoxy)phenoxy]methyl]phenyl]thieno[3,2-b]pyrrole-5-carboxamide hydrochloride] | < 10
Cn1c(C(=O)Nc2cccc(COc3ccc(OC4CCNC4)cc3)c2)cc2sccc21 (centres unmarked) [Example 32, 4-methyl-N-[3-[(4-pyrrolidin-3-yloxyphenoxy)methyl]phenyl]thieno[3,2-b]pyrrole-5-carboxamide hydrochloride] | < 10
Cn1c(C(=O)Nc2cccc(COc3ccc(OC4CCCNCC4)cc3)c2)cc2sccc21 (centres unmarked) [Example 33, N-[3-[[4-(azepan-4-yloxy)phenoxy]methyl]phenyl]-4-methyl-thieno[3,2-b]pyrrole-5-carboxamide] | < 10
Cn1c(C(=O)Nc2cccc(COc3ccc(O[C@H]4CC[C@@H](N)CC4)cc3)c2)cc2sccc21 [Example 34, N-[3-[[4-(cis-4-aminocyclohexoxy)phenoxy]methyl]phenyl]-4-methyl-thieno[3,2-b]pyrrole-5-carboxamide] | < 10
Cn1c(C(=O)Nc2ccccc2C(=O)Nc2ccc(OC3CCNCC3)cc2)cc2sccc21 [Example 36, 4-methyl-N-[2-[[4-(4-piperidyloxy)phenyl]carbamoyl]phenyl]thieno[3,2-b]pyrrole-5-carboxamide] | < 10
Cn1c(C(=O)Nc2ccccc2COc2ccc(N3CCNCC3)cc2)cc2sccc21 [Example 37, 4-methyl-N-[2-[(4-piperazin-1-ylphenoxy)methyl]phenyl]thieno[3,2-b]pyrrole-5-carboxamide] | < 10
COCc1cccc(NC(=O)c2cc3sccc3n2C)c1COc1ccc(OC[C@@H]2CCNC2)cc1 [Example 42, N-[3-(methoxymethyl)-2-[[4-[[(3R)-pyrrolidin-3-yl]methoxy]phenoxy]methyl]phenyl]-4-methyl-thieno[3,2-b]pyrrole-5-carboxamide hydrochloride] | < 10
COCc1cccc(NC(=O)c2cc3sccc3n2C)c1COc1ccc(OC2CCNCC2)cc1 [Example 43, N-[3-(methoxymethyl)-2-[[4-(4-piperidyloxy)phenoxy]methyl]phenyl]-4-methyl-thieno[3,2-b]pyrrole-5-carboxamide hydrochloride] | < 10
CCn1c(C(=O)Nc2cccc(COC)c2)cc2sccc21 [Example 45, 4-ethyl-N-[3-(methoxymethyl)phenyl]thieno[3,2-b]pyrrole-5-carboxamide] | < 10
CSCc1cccc(NC(=O)c2cc3sccc3n2C)c1 [Example 46, 4-methyl-N-[3-(methylsulfanylmethyl)phenyl]thieno[3,2-b]pyrrole-5-carboxamide] | < 10
Cn1c(C(=O)Nc2ccccc2COc2ccc(OC3CCNCC3)cn2)cc2sccc21 [Example 56, 4-Methyl-N-[2-[[5-(4-piperidyloxy)-2-pyridyl]oxymethyl]phenyl]thieno[3,2-b]pyrrole-5-carboxamide hydrochloride] | < 25
